The values that follow come from publication PMC2999418, “Biological Activity and Binding Site Characteristics of the PA1b Entomotoxin on Insects from Different Orders” (Journal of Insect Science, 2007).

The subject of test [1] is Sitophilus granarius. In words: Toxicity assay on cereal weevil adults, toxin in food, survival analysis. It counts as in vivo. Particulars: S. granarius Brayard strain. On the procedure: (§1) Cereal weevils (Sitophilus oryzae, S. zeamais and S. granarius, Coleoptera) were reared for more than 10 years in our laboratory on wheat seeds at […] 70% RH. Resistant strains were reared on pea seeds. Tests and survival analysis were performed on adults, as fully described in Louis et al ([2004]).
(§2) All toxicity assays were carried out using a mixture of PA1b isoforms (98% purity by HPLC). All tests were performed on at least 30 insects for assays and for control test (without toxin), except for the three aphid species (50 insects) and for Trichogramma (more than 300 eggs by assays). When adults were used, the insects were synchronized at the imaginal molt. The statistical analyses were performed using the JMP software (SAS, Grégy-sur-Yerres FRA).

The subject of test [2] is Sitophilus oryzae. The test is described as above. It counts as in vivo. The following applies: dose-response, PA1b isoform mixture in food, confidence interval in brackets. On the procedure:
as §1, §2

For test [3], the system named is Sitophilus zeamais. Described as above. It counts as in vivo. Particulars: S. zeamais LS strain, day 7, confidence interval in brackets. On the procedure: as §1, §2
Test [4] has as its system Mamestra brassicae. In words: Cabbage moth larval toxicity test on artificial medium with toxin. It counts as in vivo. Particulars: 1000 µg PA1b per g of diet, larvae L1 to pupa; data not shown. The procedure:
The cabbage moth Mamestra brassicae (Lepidoptera) was grown on the artificial medium described by Poitout and Bues ([1974]). PA1b was added to this media and the mortality of larvae (from L1 to pupa) was monitored daily.
as §2

For test [5], the system named is Acyrthosiphon pisum. In words: Aphid growth and toxicity assay on artificial diet with toxin. In kind it is in vivo. Particulars: after six days feeding. On the procedure:
(§3) Growth and toxicity assays were carried out on the aphids Aphis gossypii, Myzus persicae and Acyrthosiphon pisum, Hemiptera, according to Rahbé and Febvay ([1993]). Larvae of the fruit fly Drosophila melanogaster, Diptera, were provided by Dr. Allemand (UMR 5558 CNRS-UCBL, Lyon, France).
as §2
(§4) Figure 2. Effects of PA1b on three aphid species. Tests were carried out with artificial diet supplemented with the toxin at increasing concentrations, and mortality of the insects was monitored daily (relative larval survival is used in the graph). Circle : A. pisum; Square : M. persicae; Triangle : A. gossypii.

Test [6] deals with Aphis gossypii. Described as above. It counts as in vivo. Particulars: 1000 µg.ml^-1 in artificial diet. The procedure: as §3, §2, §4
The subject of test [7] is Myzus persicae. Described as above. In kind it is in vivo. The following applies: doses up to 1000 µg.ml^-1 in artificial diet. The procedure: as §3, §2, §4
The subject of test [8] is E. coli. In words: Antimicrobial test, bacterial survival. It counts as cell-based. Particulars: increasing toxin concentration up to 64 µg-ml^-1, 24 and 48 hours. On the procedure:
(§5) A possible antimicrobial and antifungal activity of PA1b was next tested on four bacterial and three fungal species. The experiments were done using an increasing toxin concentration, up to 64 µg-ml^-1.

The test system of test [9] is E. faecium. In words: Antimicrobial test, bacterial survival. The following applies: increasing toxin concentration up to 64 µg-ml^-1, 24 and 48 hours. It counts as cell-based. On the procedure: as §5
For test [10], the system named is P. aeruginosa. In words: Antimicrobial test, bacterial survival. In kind it is cell-based. The following applies: increasing toxin concentration up to 64 µg-ml^-1, 24 and 48 hours. On the procedure:
as §5

Test [11] has as its system S. aureus. In words: Antimicrobial test, bacterial survival. In kind it is cell-based. Particulars: increasing toxin concentration up to 64 µg-ml^-1, 24 and 48 hours. The procedure: as §5
The target of test [12] is PA1b binding protein on membrane extracts. In words: 125I-PA1b binding (competition) on insect membrane extracts. The following applies: T. castaneum membrane extracts; competition with purified 3741 isoform. Also on record: species or system Tribolium castaneum. On the procedure:
(§6) The isolation of membrane proteins for binding studies was performed as described by Gressent et al. ([2003]). For PA1b degradation tests, insect extracts were prepared as follows, 1 g of insects were ground with a mortar and pestle in liquid nitrogen. The resulting powder was resuspended in 2 ml of extraction buffer (20 mM Tris-HCl pH 8; 0.25 M sucrose; 2 mM MgCl2). The slurry was centrifuged for 2 min at 1000 g, and the supernatant was stored at -2O°C until required. All the operations were performed at 4°C.
(§7) The peptidic toxin PA1b-3471 isoform was labelled with I^125 to a specific radioactivity of about 900 Ci.mmor^-1, and then used for binding studies with membrane extracts, according to Gressent et al. ([2003]).
(§8) PA1b binding activity was present in all insect species, except for the resistant weevil strains and the pea specific pest Bruchus pisorum, regardless of the sensitivity or insensitivity of these insects to PA1b toxicity, as evaluated from our insect bioassays. […] The relative abundance of the binding sites was also slightly different in this group of species, varying from 10 pmol/mg of protein for T. pretiosum to a maximum of 79 pmol/mg of protein for M. persicae.

Test [13] has the same target. Described as above. More on the design: species or system Ephestia kuehniella. Particulars: E. kuehniella membrane extracts; competition with purified 3741 isoform. On the procedure:
as §6, §7, §8

Test [14] shares this target. The description is as above. Also on record: species or system Mamestra brassicae. The following applies: M. brassicae membrane extracts; competition with purified 3741 isoform. On the procedure:
as §6, §7, §8

The target is the same in test [15]. Described as above. Also on record: species or system Acyrthosiphon pisum. The following applies: A. pisum membrane extracts; competition with purified 3741 isoform. The procedure:
as §6, §7, §8

For “ASCNGVCSPFEMPPCGTSACRCIPVGLVIGYCR NPSG (bicyclic or more) [PA1b, plant peptide of 37 amino acids purified from pea (Pisum sativum) seeds; entomotoxic cystine-knot peptide with three disulfide bonds]”, the mortality in test [1] (highest tested dose 1000 µg/g) was 27%; in [5] (150 µg.ml^-1 in artificial diet), 57%; in [5] (500 µgml^-1 in artificial diet) it was “total”; in test [7] it was “no mortality”. In [1] (extrapolated, without confidence interval), the “LD50 estimated by extrapolation” value is recorded as “ca. 3500 µg/g”. The “LD50 at day 7” value was 501 [281–984] µg/g in test [2] (S. oryzae strain Bouriz, adults); 446 [251–1584] µg/g in test [2] (S. oryzae strain Bénin, adults); 489 [290–1318] µg/g in test [2] (S. oryzae strain WAA42, adults). The LC50 in [3] is 234 [125–630] µg/g. For the same sequence, the “effect on mortality, development and ecdysis” value in test [4] is on record as “no effect”. The same sequence returned a lethality in [6] of 37%. Further, the “effect on bacterial survival” value in [8], in [9], in test [10] and in test [11] was “no effect was detected” throughout. Also, the Kd in [12] came out at 11 nM; in [13], 20 nM; in [14] it was 20 nM; in test [15] it was 58 nM.

As a reminder, the mortality is the percentage killed. Broadly, the Kd is the equilibrium constant for the complex coming apart. A low value points to a tighter complex.
